According to the supplement of paper PMC10307832:

Columns and labels:
Assay in all cases: relative viability (nuclei count vs DMSO), 5 days (fraction); higher = more cells survive
[1] = compound: C1=CC2=C(C=C(C(=C2N=C1)O)N=NC3=CC4=C(C=C3)C=C(C=C4)S(=O)(=O)O)S(=O)(=O)O + Cc1nc(Nc2ncc(C(=O)Nc3c(C)cccc3Cl)s2)cc(N2CCN(CCO)CC2)n1 [Dasatinib] (partner 0.075 µM)
Procedure, shortened: (§1)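 Cells from lung cancer lines were seeded into 1536-well plates and, one day later, dosed by pin tool. Treatments were either a single drug or a fixed dose of an anchor drug with five library-drug doses (not always all listed) in √10 steps. After 5 days, nuclei were stained in a one-step fixation (final 0.05% Triton X-100, 1% formaldehyde, 1 ug/ml Hoechst) and counted on 4× images, and relative viability is the treated-to-vehicle nuclei ratio, as the median of duplicate plates.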

AT-7519 + Luminespib = compound: O=C(NC1CCNCC1)c1n[nH]cc1NC(=O)c1c(Cl)cccc1Cl [AT-7519] + CCNC(=O)c1noc(-c2cc(C(C)C)c(O)cc2O)c1-c1ccc(CN2CCOCC2)cc1 [Luminespib] (partner 0.01 µM)
Procedure, shortened: as §1

AT-7519 + Alpelisib = compound: O=C(NC1CCNCC1)c1n[nH]cc1NC(=O)c1c(Cl)cccc1Cl [AT-7519] + Cc1nc(NC(=O)N2CCC[C@H]2C(N)=O)sc1-c1ccnc(C(C)(C)C(F)(F)F)c1 [Alpelisib] (partner 2 µM)
Procedure, shortened: as §1

AT-7519 + Decitabine = compound: O=C(NC1CCNCC1)c1n[nH]cc1NC(=O)c1c(Cl)cccc1Cl [AT-7519] + Nc1ncn([C@H]2C[C@H](O)[C@@H](CO)O2)c(=O)n1 [Decitabine] (partner 2 µM)
Procedure, shortened: as §1

UMC-11
relative viability ([1]; first compound 0.08 µM): 0.493
relative viability ([1]; first compound 0.253 µM): 0.454
relative viability ([1]; first compound 0.8 µM): 0.456
relative viability ([1]; first compound 2.53 µM): 0.439
relative viability ([1]; first compound 8 µM): 0.441
relative viability (AT-7519 + Luminespib; first compound 0.01 µM): 1.06
relative viability (AT-7519 + Luminespib; first compound 0.03162 µM): 0.98
relative viability (AT-7519 + Luminespib; first compound 0.3162 µM): 0.716
relative viability (AT-7519 + Luminespib; first compound 1 µM): 0.394
relative viability (AT-7519 + Alpelisib; first compound 0.01 µM): 0.841
relative viability (AT-7519 + Alpelisib; first compound 0.03162 µM): 0.94
relative viability (AT-7519 + Alpelisib; first compound 0.3162 µM): 0.587
relative viability (AT-7519 + Alpelisib; first compound 1 µM): 0.35
relative viability (AT-7519 + Decitabine; first compound 0.01 µM): 0.675
relative viability (AT-7519 + Decitabine; first compound 0.03162 µM): 0.551
relative viability (AT-7519 + Decitabine; first compound 0.3162 µM): 0.514
relative viability (AT-7519 + Decitabine; first compound 1 µM): 0.306
